Assay results as given in patent US20050026984A1, “Substituted thieno [2,3-c] pyrazoles and their use as medicinal products” (Aventis Pharma S.A., priority 2003, published 2005).

Q: For `O=C(O)c1cc2c(-c3ccccc3)n[nH]c2s1` [Example 1, 3-phenyl-1H-thieno[2,3-c]pyrazole-5-carboxylic acid], which melting point is on record?
A: 142 °C
